{"source": "patent US20250099414A1", "about": "“COMPOSITIONS AND METHODS FOR TREATING TRIPLE-NEGATIVE BREAST CANCER” (The Board of Regents of the University of Oklahoma, priority 2019, published 2025)", "key": {"[1]": {"system": "4T1", "test": "ANXA5-CMB TNBC cell cytotoxicity, 4T1", "format": "cell-based, murine", "details": "24 hours", "description": "(§1) While the cytotoxic activity of the ANXA5-CMB conjugate is excellent against TNBC cells, the cytotoxicity of the conjugate must be tested against healthy vascular and mammary cells."}, "[2]": {"system": "EMT6", "test": "ANXA5-CMB TNBC cell cytotoxicity, EMT6", "format": "cell-based, murine", "details": "24 hours", "description": "as §1"}, "[3]": {"system": "EMT6 cells", "test": "ICD study: cytotoxicity (cell death) after 24 hours", "format": "cell-based, murine", "details": "10 nM DM1"}, "[4]": {"system": "mouse 4T1 TNBC cells"}, "[5]": {"system": "mouse EMT6 TNBC cells", "details": "for IC50: read-out: IC50, cell viability, 72 h, concentration of DM1 as free drug or in the conjugate, 2 mM calcium"}, "[6]": {"system": "healthy MCF10A cells", "test": "ANXA5-DM1 and ANXA5 cell viability assay (AlamarBlue), healthy mammary cells", "details": "for IC50: read-out: IC50, cell viability, 72 h, 100% confluent cells"}, "[7]": {"system": "EMT6 cells", "test": "ANXA5-VPA TNBC cytotoxicity (Alamar Blue), EMT6", "format": "cell-based, murine", "details": "48 hours, VPA in the conjugate or free VPA, 10^−4 to 10 mM", "experimental": "(§2) After confirming the conjugation of VPA to ANXA5, the cytotoxicity of the ANXA5-VPA conjugate was tested in two murine TNBC cell lines (EMT6 and 4T1). […] EMT6 and 4T1 cells were seeded at 5,000 cells/well in 96 well plates and treated 48 hours after seeding. Cells were treated with 10^−4 to 10 mM of VPA in the ANXA5-VPA conjugate or free VPA growth medium fully supplemented with 2 mM of calcium to promote ANXA5 binding. After 48 hours, cell viability was analyzed via a fluorescent Alamar Blue assay. Percent viability was determined by normalizing the control (0 mM VPA) to 100% and comparing each treatment group to the control (n=3)."}, "[8]": {"system": "4T1 cells", "test": "ANXA5-VPA TNBC cytotoxicity (Alamar Blue), 4T1", "format": "cell-based, murine", "details": "48 hours, VPA in the conjugate or free VPA, 10^−4 to 10 mM", "experimental": "as §2"}, "[9]": {"details": "cited from earlier work"}, "[10]": {"system": "murine TNBC cells", "test": "ANXA5-CMB TNBC cell cytotoxicity, statements on both lines together", "format": "cell-based", "details": "at 1 μM", "description": "as §1"}, "[11]": {"system": "HUVEC cells", "test": "ANXA5-CMB healthy cell cytotoxicity (resazurin), HUVEC", "details": "dose up to 100 μM CMB in the conjugate; 90-100% confluency; 2 mM calcium; 24 hours", "experimental": "(§3) Cell viability was assayed by a resazurin assay (n=3-6). […] Cells were treated with 0-100 μM of CMB in the ANXA5-CMB conjugate in growth media fully supplemented with 2 mM calcium to promote ANXA5 binding. After 72 hours, an Alamar Blue assay was utilized to determine viability. Percent viability was determined by comparing treatment groups to the untreated control (0 μM).\n(§4) Cells were treated with 0-100 μM CMB in the ANXA5-CMB conjugate in fully supplemented growth medium with 2 mM calcium. Cells were grown to 90-100% confluency. […] Cell viability was measured via an Alamar Blue assay and viability was compared to the control (0 μM) after 24 hours. Data is presented as mean±SD (n=4-8). Cells were treated with 0-100 μM CMB in the ANXA5-CMB conjugate in fully supplemented growth medium with 2 mM calcium. Cells were grown to 90-100% confluency. […] Cell viability was measured via an Alamar Blue assay and viability was compared to the control (μM) after 24 hours. Data is presented as mean±SD (n=4-8)."}, "[12]": {"system": "MCF10A cells", "test": "ANXA5-CMB healthy cell cytotoxicity (resazurin), MCF10A", "format": "cell-based, human", "details": "90-100% confluency; 2 mM calcium; 24 hours", "experimental": "as §3, §4"}, "[13]": {"system": "EMT6 cells", "test": "Immunogenic cell death: ATP release (luminescence kit)", "format": "cell-based, murine", "details": "24 h", "experimental": "To determine if ANXA5-DM1 induces ATP release from cells after treatment, an ATP luminescence kit (Molecular Probes, Eugene, OR, USA) was utilized according to the manufacturer's instructions. […] After 24 h, 10 μL of cell media was added to 90 μL of standard reaction solution in a white plate. Luminescence reading was obtained from the plate reader, and ATP concentration was calculated by comparing the luminescence reading to a standard curve."}, "[14]": {"system": "EMT6 cells", "test": "Immunogenic cell death: calreticulin surface expression (flow cytometry)", "format": "cell-based, murine", "details": "10 nM DM1; 24 h", "experimental": "To determine if ANXA5-DM1 induces calreticulin surface expression, flow cytometry was utilized. EMT6 and 4T1 cells were seeded at 25,000 cells/well in 24 well plates and treated 24 h after seeding. […] After 24 h, media was collected into microcentrifuge tubes to collect dead cells. To ensure there would be enough cells, three wells were combined to be one sample. Cells in the plates were then washed with PBS, and 100 μL of trypsin was added to each well. Once 90% of the cells were removed from the plate (2-5 min), cells were added to the microcentrifuge tubes and centrifuged at 500×g for 5 min. Cells were resuspended in 200 μL of 0.5% BSA-PBS and counted to have at least 100,000 cells per sample. Cells were then fixed with 4% paraformaldehyde (PFA, Thermo Fisher Scientific, Waltham MA, USA) for 20 min at 4° C. Cells were then washed two times with 500 μl of 0.5% BSA-PBS at 500×g for 5 minutes. […] After incubation, cells were analyzed on a BD Biosciences Accuri C6 flow cytometer (Franklin Lakes, New Jersey, USA) with excitation at 488 nm, and a 533/30 bandpass filter was used to capture 10,000 gated events per sample. Data was collected and analyzed with BD C6 Accuri software. One sample was composed of three wells, and each sample was analyzed three times. […]"}, "[15]": {"system": "murine TNBC cell lines (EMT6 and 4T1)", "test": "ANXA5-VPA TNBC cytotoxicity, statement on both lines together", "format": "cell-based", "details": "48 hours", "experimental": "as §2"}, "[16]": {"system": "EMT6-strain TNBC cells with PS externalization", "test": "ANXA5 colorimetric binding (modified indirect ELISA), EMT6", "design": "species or system murine", "details": "0-20 nM biotinylated ANXA5; 2 mM Ca2+; read-out: dissociation constant of the specific binding", "experimental": "(§5) Binding strength was analyzed via a modified indirect ELISA. Cells (50,000 cells/well) were grown onto 24 well plates and fixed with 0.025% glutaraldehyde once cancer cells were 70-80% confluent, or MCF10A noncancerous cells were 100% confluent. Cancer cells were blocked with 0.5% BSA for 1 h at 37° C. Cells were incubated with 0-20 nM of biotinylated ANXA5 for 2 h at 37° C. and 5% CO2. ANXA5 was biotinylated with a Roche biotin protein labeling kit (Roche, Basel, Switzerland), and the level of biotinylation was quantified with a Pierce Biotin Quantification kit (Pierce Biotechnology, Waltham, MA, USA) per manufacturer's instructions. Cells were washed four times with 0.5% BSA to remove unbound ANXA5. […] The supernatant was collected, and the absorbance was read at 450 nm on a BioTek Synergy HT microtiter plate reader (Winooski, VT). […] The dissociation constant was determined using the nonlinear regression one-site total and nonspecific binding model in GraphPad Prism version 9 software (Graph Pad, San Diego California, USA).\n(§6) To confirm the ability of the ANXA5 to bind to PS on the surface of TNBC cells, equilibrium binding experiments with increasing concentrations of biotinylated ANXA5 were used. […] After subtracting out 0 nM ANXA5 background absorbance, the non-specific binding was essentially 0, meaning ANXA5 was not binding to the EMT6 and 4T1 cells when Ca^2+ was absent. […]"}, "[17]": {"system": "4T1-strain TNBC cells with PS externalization", "test": "ANXA5 colorimetric binding (modified indirect ELISA), 4T1", "design": "species or system murine", "details": "0-20 nM biotinylated ANXA5; 2 mM Ca2+; read-out: dissociation constant of the specific binding", "experimental": "as §5, §6"}, "[18]": {"system": "healthy MCF10A human breast cells", "test": "ANXA5 colorimetric binding (modified indirect ELISA), MCF10A", "experimental": "as §5, §6"}, "[19]": {"details": "read-out: IC50, cell viability, 72 h, concentration of DM1 as free drug or in the conjugate, 2 mM calcium"}}, "note": "Entries after “also recorded” stand apart in the source; their conditions may differ. Read-outs that look alike come from different tables or passages of the source.", "data": [{"compound": "O=C(O)CCCc1ccc(N(CCCl)CCCl)cc1", "note": "[CMB, Chlorambucil, reference compound]", "values": [{"measurement": "IC50", "setting": "[1]; Mus musculus, 4T1", "result": 156, "unit": "µM"}, {"measurement": "IC50", "setting": "[2]; Mus musculus, EMT6", "result": 102, "unit": "µM"}]}, {"compound": "COc1cc2cc(c1Cl)N(C)C(=O)C[C@H](OC(=O)[C@H](C)N(C)C(=O)CCS)[C@]1(C)O[C@H]1[C@H](C)[C@@H]1C[C@@](O)(NC(=O)O1)[C@H](OC)/C=C/C=C(\\C)C2", "note": "[DM1, Mertansine, reference compound]", "values": [{"measurement": "cell death (cytotoxicity)", "setting": "[3]", "result": "significantly increased cell death"}, {"measurement": "IC50", "setting": "[4]; [19]", "result": 0.32, "unit": "µM"}, {"measurement": "IC50", "setting": "[5]", "result": 0.028, "unit": "µM"}, {"measurement": "IC50", "setting": "[6]; concentration of DM1", "result": 0.16, "unit": "µM"}]}, {"compound": "CCCC(CCC)C(=O)O", "note": "[VPA, Valproic acid]", "values": [{"measurement": "IC50 concentration", "setting": "[7]", "result": "could not be obtained with a dose of up to 10 mM; also recorded: could not be calculated"}, {"measurement": "IC50 concentration", "setting": "[8]", "result": "could not be obtained with a dose of up to 10 mM; also recorded: could not be calculated"}, {"measurement": "IC50", "setting": "[9]; 72-96 hours, read-out: concentration required to achieve an IC50 value", "result": "> 1000", "unit": "µM"}, {"measurement": "dose required to be effective in vitro", "setting": "[9]; delivered alone, after 72 hours", "result": "1 to 10", "unit": "mM"}]}, {"compound": "ANXA5-CMB: chlorambucil linked to ANXA5 lysine residues via EDC crosslinking chemistry", "values": [{"measurement": "IC50", "setting": "[1]", "result": 2.7, "unit": "µM"}, {"measurement": "IC50 ratio (CMB / ANXA5-CMB)", "setting": "[1]", "result": 57}, {"measurement": "IC50", "setting": "[2]", "result": 0.42, "unit": "µM"}, {"measurement": "IC50 ratio (CMB / ANXA5-CMB)", "setting": "[2]", "result": 241}, {"measurement": "cytotoxicity", "setting": "[10]", "result": 100, "unit": "%"}, {"measurement": "effect on cell viability", "setting": "[11]", "result": "did not impact viability"}, {"measurement": "IC50", "setting": "[12]", "result": 6, "unit": "µM"}]}, {"compound": "ANXA5-DM1: mertansine (DM1) linked to lysine residues of recombinant annexin A5 with the crosslinker sulfo-SMCC", "values": [{"measurement": "ATP release", "setting": "[13]; 10 nM DM1, versus free DM1 or control", "result": "significantly increased ATP release; also recorded: significant increase"}, {"measurement": "ATP released relative to free DM1", "setting": "[13]; 10 nM", "result": "~10", "unit": "times"}, {"measurement": "calreticulin surface expression (median fluorescent intensity)", "setting": "[14]", "result": "significantly increased calreticulin surface expression; also recorded: significant increase"}, {"measurement": "cell death (cytotoxicity)", "setting": "[3]", "result": "significantly increased cell death"}, {"measurement": "potency (IC50) relative to free DM1", "setting": "[4]; 72 h viability assay", "result": "more than 2 orders of magnitude"}, {"measurement": "IC50", "setting": "[4]; [19]", "result": 0.00085, "unit": "µM"}, {"measurement": "IC50", "setting": "[4]; read-out: equivalent IC50 based on the ANXA5 concentration, assuming 4 moles DM1 per mole ANXA5, from 0.85 nM DM1", "result": 0.00021, "unit": "µM"}, {"measurement": "potency (IC50) relative to free DM1", "setting": "[5]; 72 h viability assay", "result": "more than 2 orders of magnitude"}, {"measurement": "IC50", "setting": "[5]", "result": 0.00021, "unit": "µM"}, {"measurement": "cytotoxicity to healthy breast cells", "setting": "[6]; 100% confluence, compared with free DM1, doses up to 48 μM", "result": "significantly less cytotoxic; also recorded: does not have cytotoxic effects"}, {"measurement": "IC50", "setting": "[6]; concentration of DM1", "result": "> 5", "unit": "µM"}, {"measurement": "IC50", "setting": "[6]; doses up to 48 μM", "result": "> 48", "unit": "µM"}]}, {"compound": "ANXA5-VPA", "values": [{"measurement": "IC50", "setting": "[7]; read-out: IC50 concentration", "result": "~10", "unit": "µM"}, {"measurement": "IC50", "setting": "[8]; read-out: IC50 concentration", "result": "~10", "unit": "µM"}, {"measurement": "lowest dose with significantly increased cell death compared to the free drug control", "setting": "[15]", "result": 97, "unit": "nM"}]}, {"compound": "ANXA5: recombinant annexin A5 produced in E. coli; binds phosphatidylserine in a Ca2+-dependent manner", "values": [{"measurement": "Kd", "setting": "[16]", "result": 0.00114, "unit": "µM"}, {"measurement": "Kd", "setting": "[17]", "result": 0.00231, "unit": "µM"}, {"measurement": "dissociation constant (Kd)", "setting": "[18]; cells grown to confluence", "result": "not detectable"}, {"measurement": "specific binding of ANXA5 to the cells", "setting": "[18]; total minus nonspecific binding", "result": "no specific binding; also recorded: no ANXA5-PS binding was observed"}]}]}
